In one assay the target is T1, Mer (h) (Homo sapiens, UniProt Q12866).
T1 construct: purchased
T1 sequence (Q12866 21-999): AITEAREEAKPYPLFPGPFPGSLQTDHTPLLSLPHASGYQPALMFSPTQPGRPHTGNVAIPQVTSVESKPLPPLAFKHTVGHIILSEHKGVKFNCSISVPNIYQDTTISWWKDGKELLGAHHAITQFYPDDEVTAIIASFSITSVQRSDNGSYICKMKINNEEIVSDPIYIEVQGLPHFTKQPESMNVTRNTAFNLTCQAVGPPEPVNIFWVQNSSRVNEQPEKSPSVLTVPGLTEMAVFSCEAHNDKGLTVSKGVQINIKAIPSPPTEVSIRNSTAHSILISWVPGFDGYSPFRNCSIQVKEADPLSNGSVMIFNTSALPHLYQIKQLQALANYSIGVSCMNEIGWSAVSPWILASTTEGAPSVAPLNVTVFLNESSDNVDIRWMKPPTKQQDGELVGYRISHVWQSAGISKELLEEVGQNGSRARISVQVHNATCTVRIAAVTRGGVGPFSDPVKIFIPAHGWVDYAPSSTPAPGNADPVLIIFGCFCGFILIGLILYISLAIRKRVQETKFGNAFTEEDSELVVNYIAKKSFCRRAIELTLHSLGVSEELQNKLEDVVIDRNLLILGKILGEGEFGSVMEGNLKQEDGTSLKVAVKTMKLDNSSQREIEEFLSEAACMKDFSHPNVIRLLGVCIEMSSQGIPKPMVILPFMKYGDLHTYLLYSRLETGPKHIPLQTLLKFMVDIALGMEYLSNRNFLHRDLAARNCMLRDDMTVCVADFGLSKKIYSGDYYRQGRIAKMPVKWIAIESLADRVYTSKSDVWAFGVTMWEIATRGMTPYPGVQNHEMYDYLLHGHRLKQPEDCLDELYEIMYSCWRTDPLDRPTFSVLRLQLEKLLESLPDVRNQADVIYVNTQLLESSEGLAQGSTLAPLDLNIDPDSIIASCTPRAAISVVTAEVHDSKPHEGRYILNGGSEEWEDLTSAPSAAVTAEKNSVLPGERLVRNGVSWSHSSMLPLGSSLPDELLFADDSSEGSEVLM
The assay can be described thus: Enzymatic activity test, Mer (h). Format: biochemical. As to conditions: 10 μM [γ-33P]-ATP, 40 minutes, room temperature. The procedure:
Assay 3: Enzymatic Activity Test of the Compounds of the Present Invention
Test substances: the compounds of the present invention, wherein the structures and preparations thereof were as described above.
(1) Preparation of the Compound Stock Solution
The compound was dissolved in 100% DMSO to prepare a stock solution with a maximum concentration of 500 μM.
(2) Preparation of the Compound Working Solution
The compound stock solution was diluted to final concentrations of 500, 150, 50, 15, 5, 1.5, 0.5, 0.15 and 0.05 μM to become the compound working solutions (50×).
(3) Preparation of Different Enzyme Reaction Solutions
The Mer (h) enzyme was dissolved in 8 mM MOPS (pH 7.0), 0.2 mM EDTA, 30 mM NaCl, and 250 μM GGMEDIYFEFIVIGGKKK to prepare an enzyme solution having a final concentration of 3.1 nM. The enzymatic reaction was activated by using 10 mM magnesium acetate and 10 μM [γ-^33P]-ATP to form an Mg/ATP mixed solution.
In a 384-well plate, the compound working solution was added to final concentrations of 10000, 3000, 1000, 300, 100, 30, 10, 3, and 1 nM. Then different enzyme reaction solutions prepared according to the above conditions were added. The incubation was carried out for 40 minutes at room temperature. The test was terminated by the addition of a 0.5% phosphoric acid solution. 10 μL of the reaction solution was taken and dropped to the P30 filter paper. The filter paper was washed 4 times with 0.425% phosphoric acid solution and once with methanol, and then placed on a scintillation counter. The […] IC50 values were calculated using GraphPad 5.0 software.

A further assay has as its target T2, H1299 cell pMer (Homo sapiens, UniProt Q12866).
T2 construct: The H1299 cells were inoculated in a 6-well plate; endogenous in cells; host or cells: H1299
T2 sequence (Q12866 21-999): T1 sequence (Q12866 21-999)
The assay can be described thus: Inhibitory activity on the cell pMer (Western Blot). Format: cell-based. As to conditions: H1299 cells, compound 0.35, 1.1, 3.3, 10 nM, Human MerMab 200 ng/mL. The method, then:
Assay 6: Test for Inhibitory Activities of the Compounds of the Present Invention on the Cell pMer
H1299 is a non-small cell lung cancer cell.
Test substances: the compounds of the present invention, wherein the structures thereof were as described above.
Test equipment: protein electrophoresis apparatus (manufactured by Bio Rad), transfer unit (manufactured by Bio Rad), exposure unit (manufactured by Tanon), CO2 cell incubator (manufactured by Thermo).
The H1299 cells were inoculated in a 6-well plate (containing 10% FBS 1640 medium, 5×10^5 cells per well), and adherent cells were cultivated at 37° C. in a 5% CO2 condition for 18 hours. The cells were starved overnight. Different concentrations of compounds were added. The final compound concentrations were 0.35, 1.1, 3.3 and 10 nM, and the final DMSO content was 1‰. The negative control wells contained the medium containing 1‰ DMSO. After incubating at 37° C. in a 5% CO2 condition for 60 minutes, Human MerMab (R&D, final concentration 200 ng/mL) was added to each well. After further incubating for 60 minutes, the cell total protein was extracted for Western Blot and the IC50 values were calculated using GraphPad 5.0 software. The inhibitory activity of the compound on the cell pMer was examined.

By IC50 is commonly meant the concentration that gives 50% inhibition. Lower therefore signals greater potency. Consider `COc1cc2nccc(Oc3cnc(NC(=O)c4cn(C(C)C)cc(-c5ccc(F)cc5)c4=O)nc3)c2cc1OC` [Compound 20, N-(5-((6,7-dimethoxyquinolin-4-y)oxy)pyrimidine-2-yl)-5-(4-fluorophenyl)-1-isopropyl-4-oxo-1,4-dihydropyridin-3-carboxamide], for which the IC50 is 3 nM against Mer (h) and 1.1 nM against H1299 cell pMer.
Consider `COc1cc2nccc(Oc3cnc(NC(=O)c4cn(C(C)C)nc(-c5ccc(F)cc5)c4=O)nc3)c2cc1OC` [Compound 39, N-(5-((6,7-dimethoxyquinolin-4-yl)oxy)pyrimidine-2-yl)-6-(4-fluorophenyl)-2-isopropyl-5-oxo-2,5-dihydropyridazine-4-carboxamide], for which the IC50 came out at 3 nM against Mer (h) and 1.1 nM at H1299 cell pMer.
For `COc1cc2nccc(Oc3ccc(NC(=O)c4cn(C(C)C)cc(-c5ccc(C)cc5)c4=O)nc3)c2cc1OC` [Compound 1, N-(5-((6,7-dimethoxyquinolin-4-yl)oxy)pyridin-2-yl)-1-isopropyl-4-oxo-5-p-tolyl-1,4-dihydropyridin-3-carboxamide] the same measures were 2 nM and 1.1 to 3.3 nM.

The values are drawn from US20220073496A1, “NOVEL QUINOLINE DERIVATIVE INHIBITOR” (Nanjing Transthera Biosciences Co., Ltd., priority 2018, published 2022).
